Experimental data taken from US20010001713A1, “Composition and method for measuring the foliar uptake of agrochemicals” (priority 1999, published 2001).
Read-outs that look alike come from different tables or passages of the source.

Legend:
cucumber leaves [1] = conditions: Baktadagi, in vivo, 0 h
Procedure: (§1) (Step 1) Preparation of a solution containing agrochemicals and Congo Red
(§2) Since dimethomorph is not readily absorbed by the plant, 0.1% of stearylamine ethoxylate(SN, moles of ethylene oxide added: 10) was added as an adjuvant to enhance its foliar uptake.
(§3) Cucumber seeds(Baktadagi, Hung Nong Seed Co., Ltd., Korea) were sowed in disposable resin cup pots (id 47 mm×50 mm) at a density of three seeds per pot and cultivated in a greenhouse. Upon the complete development of cotyledons, the cucumber plants were each transplanted to a disposable resin cup pot(id 66 mm×h 66 mm) and cultivated in a greenhouse until the development of 4 to 5 leaves.
(§4) 18 pots of cucumber plants thus prepared were put in a spray booth and sprayed with the agrochemical solution prepared in (Step 1) in an amount of 80 l/ha. Further, 15 glass plates(10 cm×10 cm) were also sprayed with the same agrochemical solution prepared in (Step 1) in an amount of 80 l /ha.
(§5) Immediately after the spraying in (Step 2) , one leaf with its petiole attached was cut off from each of three cucumber plants, put in a test tube containing the appropriate washing solution and washed by agitating the tube with bottom-side up at 60 to 70 rpm for 2 minutes to obtain three wash extracts. Three glass plates were subjected to the same washing procedure in a petri dish(id 15.2 cm) to obtain three control wash extracts.
(§6) The remaining 15 cucumber plants and 12 glass plates were stored in the dark at room temperature, and the same washing procedure as above was repeated at 1 hour, 3 hours, 6 hours, 12 hours and 24 hours after the spraying.
(§7) The concentrations of the agrochemicals in the wash extracts were measured by HPLC(Spectra 200 Programmable Wavelength Detector, acetonitrile-water solvent programming, 42%-80%). The wash extracts obtained immediately after the spraying were used as standard solutions, and Congo Red, as an internal standard.

[2] = Glass plate control run of Example 3 (loss of dimethomorph other than by plant uptake); conditions: 24 hours after spraying, stored in the dark at room temperature
Source text: The use of a control plate serves the purpose of determining the loss of agrochemical due to reasons other than plant uptake.
(§8) Forum wettable powder(a 25% dimethomorph formulation, Dongbang Agro Co., Ltd., Korea) was dispersed in water and added thereto were one of the penetrant candidate materials listed in Table 4 and Congo Red to obtain an agrochemical solution containing dimethomorph, a penetrant candidate and Congo Red at concentrations of 250 ppm, 1,000 ppm and 200 ppm, respectively. A control containing no penetrant was also prepared.
The agrochemical solution and control thus prepared were sprayed on leaves of each of six cucumber plants having 4 to 5 leaves, as well as on six glass plates(10 cm×10 cm). Immediately after the spraying, the sprayed cucumber leaves from 3 cucumber plants and three glass plates were washed with 12 ml portion of 30% acetonitrile-aqueous solution for 3 minutes to obtain standard wash extracts and controls. […]
The concentrations of dimethomorph and Congo Red in the wash extracts were measured by HPLC(Spectra 200 Programmable Wavelength Detector, acetonitrile-water solvent programming, 42%-80%) . […] The foliar uptake rate of dimethomorph was calculated by comparing the concentrations of dimethomorph and Congo Red in the wash extracts obtained immediately after the spraying and at 24 hours after the spraying.

rice plants [3] = conditions: in vivo; for Time-dependent Uptake by Rice(%) (Mean ± S.D.(n = 3)) I.A. / Time-dependent Uptake by Rice(%) (Mean ± S.D.(n = 3)) after 1 hr / Time-dependent Uptake by Rice(%) (Mean ± S.D.(n = 3)) after 3 hrs / Time-dependent Uptake by Rice(%) (Mean ± S.D.(n = 3)) after 6 hrs / Time-dependent Uptake by Rice(%) (Mean ± S.D.(n = 3)) after 12 hrs / Time-dependent Uptake by Rice(%) (Mean ± S.D.(n = 3)) after 24 hrs: Dongjin byeo
cucumber leaves [4] = assay: Foliar uptake of agrochemicals by cucumber plants (Congo Red tracer method); conditions: for Time-dependent Uptake by Cucumber(%) (Mean ± S.D.(n = 3)) after 24 hrs: 24 hrs after spraying
Procedure: as §1, §2, §3, §4, §5, §6, §7

rice plants [5] = conditions: in vivo
cucumber leaves [6] = assay: Selection of a penetrant for the absorption of dimethomorph by cucumber leaves; conditions: 24 hours after spraying, dimethomorph 250 ppm (Forum wettable powder) + penetrant 1,000 ppm
Procedure: as §8
The agrochemical solution and control thus prepared were sprayed on leaves of each of six cucumber plants having 4 to 5 leaves, as well as on six glass plates(10 cm×10 cm). Immediately after the spraying, the sprayed cucumber leaves from 3 cucumber plants and three glass plates were washed with 12 ml portion of 30% acetonitrile-aqueous solution for 3 minutes to obtain standard wash extracts and controls.
The remaining three cucumber pots and three glass plates were stored in the dark at room temperature, and the same procedure was repeated at 24 hours after the spraying.
The concentrations of dimethomorph and Congo Red in the wash extracts were measured by HPLC(Spectra 200 Programmable Wavelength Detector, acetonitrile-water solvent programming, 42%-80%) . The wash extracts obtained immediately after the spraying were used as standard solutions, and Congo Red, as an internal standard. The foliar uptake rate of dimethomorph was calculated by comparing the concentrations of dimethomorph and Congo Red in the wash extracts obtained immediately after the spraying and at 24 hours after the spraying.

COc1ccc(C(=CC(=O)N2CCOCC2)c2ccc(Cl)cc2)cc1OC [Dimethomorph, dimethomorph]
Time-dependent Uptake by Cucumber(%) (Mean ± S.D.(n = 3)) I.A. (cucumber leaves [1]): 0 ± 0.7% | Uptake (%) of dimethomorph [2]: 0.0%

CCOP(=O)(Sc1ccccc1)Sc1ccccc1 [Edifenphos, edifenphos]
Time-dependent Uptake by Rice(%) (Mean ± S.D.(n = 3)) I.A. (rice plants [3]): 0 ± 1.3% | Time-dependent Uptake by Rice(%) (Mean ± S.D.(n = 3)) after 1 hr (rice plants [3]): 1.5 ± 1.1% | Time-dependent Uptake by Rice(%) (Mean ± S.D.(n = 3)) after 3 hrs (rice plants [3]): 4.9 ± 0.7% | Time-dependent Uptake by Rice(%) (Mean ± S.D.(n = 3)) after 6 hrs (rice plants [3]): 7.8 ± 0.4% | Time-dependent Uptake by Rice(%) (Mean ± S.D.(n = 3)) after 12 hrs (rice plants [3]): 14.5 ± 1.3% | Time-dependent Uptake by Rice(%) (Mean ± S.D.(n = 3)) after 24 hrs (rice plants [3]): 29.8 ± 1.9% | absorption by the rice plants (in words) (rice plants [3]): absorbed by the rice plants at a steady rate

OC(c1ccc(Cl)cc1)(c1cncnc1)c1ccccc1Cl (stereo not shown) [Fenarimol, fenarimol]
Time-dependent Uptake by Cucumber(%) (Mean ± S.D.(n = 3)) after 1 hr (cucumber leaves [4]; 1 hr after spraying, stored in the dark, dimethomorph with 0.1% stearylamine ethoxylate): 2.0 ± 8.1% | Time-dependent Uptake by Cucumber(%) (Mean ± S.D.(n = 3)) after 3 hrs (cucumber leaves [4]; 3 hrs after spraying, stored in the dark, dimethomorph with 0.1% stearylamine ethoxylate): 3.2 ± 1.8% | Time-dependent Uptake by Cucumber(%) (Mean ± S.D.(n = 3)) after 6 hrs (cucumber leaves [4]; 6 hrs after spraying, stored in the dark, dimethomorph with 0.1% stearylamine ethoxylate): 5.2 ± 2.5% | Time-dependent Uptake by Cucumber(%) (Mean ± S.D.(n = 3)) after 12 hrs (cucumber leaves [4]; 12 hrs after spraying, stored in the dark, dimethomorph with 0.1% stearylamine ethoxylate): 8.0 ± 4.1% | Time-dependent Uptake by Cucumber(%) (Mean ± S.D.(n = 3)) after 24 hrs (cucumber leaves [4]; stored in the dark, dimethomorph with 0.1% stearylamine ethoxylate): 15.1 ± 4.0% | Time-dependent Uptake by Cucumber(%) (Mean ± S.D.(n = 3)) after 24 hrs (cucumber leaves [4]; stored in the dark, dimethomorph with 0.1% stearylamine ethoxylate, listed as fenarimol): 15.1% | Time-dependent Uptake by Cucumber(%) (Mean ± S.D.(n = 3)) I.A. (cucumber leaves [4]; immediately after the spraying, 80 l/ha, dimethomorph solution with 0.1% stearylamine ethoxylate): 0 ± 3.1%

CC(C)OC(=O)C(C(=O)OC(C)C)=C1SCCS1 [Isoprothiolane, isoprothiolane]
Time-dependent Uptake by Rice(%) (Mean ± S.D.(n = 3)) I.A. (rice plants [3]): 0 ± 1.0% | Time-dependent Uptake by Rice(%) (Mean ± S.D.(n = 3)) after 1 hr (rice plants [3]): 7.9 ± 1.9% | Time-dependent Uptake by Rice(%) (Mean ± S.D.(n = 3)) after 3 hrs (rice plants [3]): 11.6 ± 1.2% | Time-dependent Uptake by Rice(%) (Mean ± S.D.(n = 3)) after 6 hrs (rice plants [3]): 16.1 ± 1.3% | Time-dependent Uptake by Rice(%) (Mean ± S.D.(n = 3)) after 12 hrs (rice plants [3]): 27.8 ± 1.1% | Time-dependent Uptake by Rice(%) (Mean ± S.D.(n = 3)) after 24 hrs (rice plants [3]): 47.1 ± 2.5% | absorption by the rice plants (in words) (rice plants [3]): absorbed by the rice plants at a steady rate

CC12CC1(C)C(=O)N(c1cc(Cl)cc(Cl)c1)C2=O (stereo not shown) [Procymidone, procymidone]
Time-dependent Uptake by Cucumber(%) (Mean ± S.D.(n = 3)) I.A. (cucumber leaves [1]): 0 ± 0.8%

Cc1cccc2sc3nncn3c12 [Tricyclazole, tricyclazole]
Time-dependent Uptake by Rice(%) (Mean ± S.D.(n = 3)) I.A. (rice plants [3]): 0 ± 1.1% | Time-dependent Uptake by Rice(%) (Mean ± S.D.(n = 3)) after 1 hr (rice plants [3]): 1.4 ± 0.7% | Time-dependent Uptake by Rice(%) (Mean ± S.D.(n = 3)) after 3 hrs (rice plants [3]): 1.1 ± 1.5% | Time-dependent Uptake by Rice(%) (Mean ± S.D.(n = 3)) after 6 hrs (rice plants [3]): 2.0 ± 1.4% | Time-dependent Uptake by Rice(%) (Mean ± S.D.(n = 3)) after 12 hrs (rice plants [3]): 4.1 ± 0.5% | Time-dependent Uptake by Rice(%) (Mean ± S.D.(n = 3)) after 24 hrs (rice plants [3]): 11.0 ± 0.9% | absorption by the rice plants (in words) (rice plants [3]): absorbed by the rice plants at a steady rate | Recovery (%) of tricyclazole (rice plants [5]; rice): 82.4% | Uptake (%) of tricyclazole (rice plants [5]; rice): 17.6%

CCCCC(CC)COC(=O)CC(C(=O)OCC(CC)CCCC)S(=O)(=O)[O-].[Na+] (stereo not shown) [sodium dioctylsulfosuccinate]
Recovery (%) of tricyclazole (rice plants [5]): 79.1% | Uptake (%) of tricyclazole (rice plants [5]): 20.9% | Recovery (%) of dimethomorph (cucumber leaves [6]): 94.5% | Uptake (%) of dimethomorph (cucumber leaves [6]): 5.5%

castor oil ethoxylate [castor oil ethoxylate(17)]
Recovery (%) of tricyclazole (rice plants [5]): 63.7% | Uptake (%) of tricyclazole (rice plants [5]): 36.3%

laurylamine ethoxylate [laurylamine ethoxylate(7)]
Recovery (%) of tricyclazole (rice plants [5]): 35.4% | Uptake (%) of tricyclazole (rice plants [5]): 64.6% | Recovery (%) of dimethomorph (cucumber leaves [6]): 96.3% | Uptake (%) of dimethomorph (cucumber leaves [6]): 3.7%

nonylphenol ethoxylate [nonylphenol ethoxylate(10)]
Recovery (%) of tricyclazole (rice plants [5]): 80.6% | Uptake (%) of tricyclazole (rice plants [5]): 19.4% | Recovery (%) of dimethomorph (cucumber leaves [6]): 99.8% | Uptake (%) of dimethomorph (cucumber leaves [6]): 0.2%

stearylamine ethoxylate [stearylamine ethoxylate(10)]
Recovery (%) of tricyclazole (rice plants [5]): 46.1% | Uptake (%) of tricyclazole (rice plants [5]): 53.9% | Recovery (%) of dimethomorph (cucumber leaves [6]): 85.5% | Uptake (%) of dimethomorph (cucumber leaves [6]): 14.5%

tridecyl alcohol ethoxylate [tridecyl alcohol ethoxylate(5)]
Recovery (%) of tricyclazole (rice plants [5]): 75.6% | Uptake (%) of tricyclazole (rice plants [5]): 24.4% | Recovery (%) of dimethomorph (cucumber leaves [6]): 98.0% | Uptake (%) of dimethomorph (cucumber leaves [6]): 2.0%
